{"source": "paper PMC7156458", "about": "“Synthetic biology based construction of biological activity-related library of fungal decalin-containing diterpenoid pyrones” (Nature Communications, 2020)", "test_in_all_cases": "cells", "design_in_all_cases": "JFCR39 human cancer cell line panel, antiproliferative dose response (optical density), GI50", "key": {"[1]": {"test_system": "HCT-15", "conditions": "Homo sapiens, HCT-15", "experimental": "(§1) Initially, we evaluated new DDP analogues for their antiproliferative activities across the panel of 39 human cancer cell lines, JFCR39[50],[51]. […] Purified DDPs was dissolved in DMSO (Specially Prepared Reagent, Nuclease and Protease tested, NACALAI, 09659-14) to prepare 5 mM solutions. The Each DDP solution (5 mM) was used for antiproliferative effects on cancer cell lines (Supplementary Notes 23, 24, 25, 26), biological activity against Drosophila (Supplementary Note 27), anti-HIV assay (Supplementary Note 28) and screening of amyloid Ab42 aggregation inhibitors (Supplementary Notes 29)."}, "[2]": {"test_system": "MKN-B", "experimental": "as §1"}, "[3]": {"test_system": "NCI-H460", "conditions": "Homo sapiens, NCI-H460", "experimental": "as §1"}}, "data": [{"smiles": "C=C1CCC2C3(C)CC(C=C(C)C)OC3CCC2(C)C1Cc1c(OC)oc(C)c(C)c1=O", "note": "(stereo not drawn) [Compound 23]", "values": [{"measurement": "GI50", "setting": "[1]", "value": 983, "unit": "nM"}]}, {"smiles": "C=C1CC[C@H]2[C@]3(C)C[C@H](C=C(C)C)O[C@H]3CC[C@]2(C)[C@@H]1Cc1c(OC)oc(C)c(C)c1=O", "note": "[Compound 24]", "values": [{"measurement": "GI50", "setting": "[2]", "value": 1280, "unit": "nM"}, {"measurement": "GI50", "setting": "[3]", "value": 90.1, "unit": "nM"}]}]}
